Laboratory results published in patent US9051265B2, “N-benzylindole modulators of PPARG” (The Scripps Research Institute, priority 2011, dated 2015).

System: PPARG (murine PPARg2 or full-length human PPARg)
Experiment: Cell-based PPRE-luciferase transactivation assay in COS-1 cells

Question: `CN(CCOc1ccc(CC2SC(=O)NC2=O)cc1)c1ccccn1` (stereo not shown) [rosiglitazone] was tested. Which “activation of the PPRE reporter” value did it give?
Answer: Its value is “about 5 fold”.
